Reference: patent US20020165136A1, “MHC peptides and methods of use” (Thomas Jefferson University, priority 1996, published 2002)
“Also recorded” adds a separate entry of the source. Square brackets hold non-standard residues; d marks the D form. Ends that are not written are not given here. NMeA = CN[C@@H](C)C(=O)O

How the values were obtained:
C6 cells [1] = test: FACS analysis of apoptotic cells in the diffusion chamber; design: species or system rat; conditions: C6 cells incubated in vivo for 90 minutes in diffusion chamber
Protocol: In order to determine that the loss of cells upon treatment with active peptides was due to the induction of apoptosis, the presence of apoptotic cells within the diffusion chamber was determined at several time intervals by FACS analysis (Sell, et al. (1995)). FIG. 1 represents a typical experiment using C6 cells. […] In both cases, the cells had been incubated in vivo for 90 minutes in a diffusion chamber as described herein. […] Similar results were obtained at several time intervals thereafter.

C6 cells [2] = test: Protection from subsequent challenge with wild type C6 cells; type: in vivo, rat
Protocol: Synthetic peptide sequences listed above were tested at 5×10^−M on C6 cells. Tests for apoptosis and for protection from subsequent challenge with C6 cells are described herein. Point mutations are shown in bold characters.

C6 cells [3] = test: Tumorigenesis of C6 cells in nude mice; type: in vivo; conditions: for Expected Delay: calculated from % cells recovered; for Palpable Tumors: s.c. in nude mice
Protocol: C6 cells pre-incubated with various concentrations (10^−12, 10^−10, 10^−8, and 10^−5 M) of the peptide YLRPGPVTA were injected simultaneously into nude mice and the time of appearance of subcutaneous tumors was determined. In parallel experiments, the percentage of cells killed in the diffusion chamber assay was determined. From the percentage of cells killed, the expected delay in the appearance of tumors in mice was calculated as described previously (Resnicoff, et al., Cancer Res. 55:3739 (1995)). […] The time of appearance of tumors is slightly more delayed than expected from the percentage of cells killed in 24 hours in the diffusion chamber assay, a phenomenon previously observed also with antisense oligodeoxynucleotides to the IGF-IR RNA (Resnicoff, et al., Cancer Res. 55:3739 (1995)).
A similar inhibition of tumorigenesis was observed using the D-amino acid peptide LRLTATGDLL. In this case, the peptide (all D-aa, sequence from Kawakami, et al. (1994)) was injected s.c. into nude mice (0.1 ml, at the indicated concentrations), simultaneously with C6 cells (10^5 cells in 0.1 ml) and next to them. The animals were followed for tumor development. The results were as follows: For C6 cells without peptide injection, the tumors appeared after 4 days; for a peptide injection at 10^−10 to 10^−12 M, tumors appeared after 11 days.
C6 cells were incubated with the synthetic peptide at the indicated final concentrations for 24 hours in serum-free medium before injection into the subcutaneous tissue of seven week-old male Dalb/c nude mice. Percentage recovery was determined using the diffusion chamber assay as described herein. Expected Delay is the number of days after injection before the tumors should become palpable, based on survival in vivo estimated by percentage of cells recovered. […] Three nude mice were used in each experimental condition.

C6 cells [4] = test: In vivo apoptosis assay: peptide-pretreated C6 cells in a diffusion chamber implanted s.c. in rats; design: species or system rat; conditions: for Percent Recovery / % Recovery (24 hs) / ability to induce apoptosis (in words): C6 cells; for Percent Recovery: 24 hours in diffusion chamber; for % Recovery (24 hs): peptide at 5×10^−M, 24 hs in diffusion chamber, % of original inoculum; for ability to induce apoptosis (in words): preincubation at 10^−5 M; for Recovery (%): C6 rat glioblastoma cells pre-treated with 50 μM peptide 24 hours in serum-free medium, chamber in rats 24 hours
Protocol: (§1) The test for apoptosis in vivo was based on the use of the diffusion chamber described in detail by Resnicoff, M., et al., Cancer Res. 55: 2463-2469 (1995). According to this method, the cells are placed in a diffusion chamber that allows the passage of nutrients, antigens, antibodies, etc., but not of intact cells. The sterilized chamber is loaded with cells and then inserted into the subcutaneous tissue of rats or mice; after 24 hours, (or at other times, depending on the experiment) the chamber is removed and the number of cells in the chamber is determined with a hemocytometer, and expressed as a percentage of the original inoculum. The cells are also stained with trypan blue for viability; in the experience of the inventors, surviving cells are >95% viable.
(§2) For in vivo effects, 5×10^5 cells (C6 and CaOV-3 were both used for these studies) were placed in diffusion chambers and implanted into the s.c. tissue of the animals. Once the skin was sutured, the peptides were injected s.c. next to the chambers at the indicated concentrations in a final volume of 0.2 ml. Twenty-four hours later, the chambers were removed from the animals and the cells were quantitatively recovered.
(from gp100), involved in regression of human melanoma (Kawakami et al. 1994); 2) […], recognized by melanoma-specific human CTL lines (Cox et al, 1994); and 3) […], derived from connexin 37, that induces CTL responses against murine lung carcinoma (Mandelboim, et al., 1994). For each of these peptides, a control peptide having the same amino acid composition, but in scrambled order (controls), was also tested. C6 cells were preincubated with the peptides at a concentration of 10^−5M and transferred to the diffusion chamber (see Methods and Materials). Cell number was determined after 24 hours in the diffusion chamber transplanted into the subcutaneous tissue of rats.
Two of the three peptides were selected for further studies of the effects of mutations on the ability to induce apoptosis. Several point mutations were introduced into the peptide […]. […] Mutations at tyrosine in position 1, or the two prolines in positions 4 and 6, effectively inactivated peptide no. 2. An exception to this observation was seen when the prolines were replaced by an N-methyl amino acid. Mutations at E3 or T8 had little effect, but when both residues were mutated, recovery increased to 77%.
In order to determine the minimum concentration of these peptides that still would induce apoptosis in vivo, C6 cells were preincubated with different concentrations of the […] and D-amino acid […] peptides and recovery of viable cells was determined after 24 hours in the diffusion chamber.

C6/p35 cells = test: Diffusion chamber apoptosis test on C6 cells expressing baculovirus p35; type: in vivo, rat; conditions: untreated versus incubated with peptide
Protocol: In addition, one of the common pathways of apoptotic injury is through the ICE proteins ([…] (1996)). The activation of ICE and ICE-like proteins is inhibited by the p35 protein of baculovirus (Clem and Miller (1994)), which can also be functional in mammalian cells (Rabizadeh, et al. (1993). To determine whether the synthetic peptides caused apoptosis through the ICE pathway, a plasmid expressing the p35 protein was stably introduced into C6 cells. C6 and C6/p35 cells were then tested for apoptosis in the diffusion chambers, using the synthetic peptide […]. 2 is a composite picture showing the expression of p35 in the various cell lines, and, below each lane, the percentage of cells recovered from the diffusion chamber.

[5] = test system: CaOV3 cells (human ovarian carcinoma cells); test: Diffusion chamber assay, CaOV3 cells in mice, peptide injected s.c. next to chamber; type: in vivo, mouse; conditions: Balb/c mice, 0.2 ml of 0.05 mM peptide s.c. next to chamber, 24 hours
Protocol: as §1, §2
Human ovarian carcinoma cells CaOV3 (Resnicoff, et al. (1993)) were loaded into a diffusion chamber, and the chamber was inserted into the subcutaneous tissue of mice. The animals were then injected, also subcutaneously next to the chamber, with 0.2 ml of a 0.05 mM solution of four different peptides, and the number of cells was determined 24 hours later. […] The control peptide had no effect, and the number of cells more than doubled. CaOV3 cells also undergo apoptosis, as determined by FACS analysis.
CaOV3 cells (human ovarian carcinoma cells, 5×10^5 cells) were placed without any previous treatment into diffusion chambers that were then implanted into the subcutaneous tissue of Balb/c mice. Animals were then injected subcutaneously next to the chambers either with 0.2 ml of a 0.05 mM solution of one of the three test peptides or with 0.2 ml of a 0.05 mM solution of the control peptide.

C6 glioblastoma cells = type: in vivo, rat; design: dose or concentration left out as unconfirmed; conditions: C6 cells pre-treated 24 hours in serum-free medium

Sequence: SMAPGNYSV [control peptide, reference compound]
- apoptotic cells by FACS analysis (C6 cells [1]): not

Sequence: YLRPGPVTA [point mutant of …]
- Protection from wild type cell challenge (C6 cells [2]): yes
- Expected Delay (C6 cells [3]; 10^−5 M peptide): 14 days
- Expected Delay (C6 cells [3]; 10^−8 M peptide): 11 days
- Expected Delay (C6 cells [3]; 10^−10 M peptide): 10 days
- Expected Delay (C6 cells [3]; 10^−12 M peptide, days before tumors should become palpable): 8 days
- Palpable Tumors (C6 cells [3]; C6 cells pre-incubated with 10^−5 M peptide): 21 days
- Palpable Tumors (C6 cells [3]; C6 cells pre-incubated with 10^−8 M peptide): 15 days
- Palpable Tumors (C6 cells [3]; C6 cells pre-incubated with 10^−10 M peptide): 14 days
- Palpable Tumors (C6 cells [3]; C6 cells pre-incubated with 10^−12 M peptide, days after injection): 11 days
- inhibition of tumorigenesis (in words) (C6 cells [3]; C6 cells pre-treated with peptide at 10^−12 to 10^−5 M, nude mice): concentration-dependent inhibition of tumorigenesis
- % Recovery (C6 cells [4]; C6 cells incubated with 10^−5 M peptide 24 hours in serum-free medium, diffusion chamber): 0.3%
- % Recovery (C6 cells [4]; C6 cells incubated with 10^−8 M peptide 24 hours in serum-free medium, diffusion chamber): 2.1%
- % Recovery (C6 cells [4]; C6 cells incubated with 10^−10 M peptide 24 hours in serum-free medium, diffusion chamber): 4.5%
- % Recovery (C6 cells [4]; C6 cells incubated with 10^−12 M peptide 24 hours in serum-free medium, diffusion chamber): 18%
- Percent Recovery (C6 cells [4]; peptide 10^−5 M): 0.3%
- Percent Recovery (C6 cells [4]; peptide 10^−8 M): 2.1%
- Percent Recovery (C6 cells [4]; peptide 10^−10 M): 4.5%
- Percent Recovery (C6 cells [4]; peptide 10^−12 M): 18%
- % Recovery (24 hs) (C6 cells [4]): 3.5%
- apoptosis in C6 cells and C6 cells stably transfected with the empty vector (C6 cells [4]; diffusion chamber, treated with peptide): underwent apoptosis
- growth of clones expressing the p35 protein in the diffusion chamber (C6/p35 cells): grew in the diffusion chamber equally well whether untreated or incubated with the synthetic peptide; also recorded: grew in the diffusion chamber equally well, whether untreated or incubated with the synthetic peptide
- Percent Recovery [5]: 3.0%

Sequence: LRLTATGDLL (D-amino acids) [LRLTATGDLL (D-amino acid)]
- Protection from wild type cell challenge (C6 cells [2]): yes
- time of appearance of tumors (C6 cells [3]; peptide 0.1 ml s.c. at 10^−10 to 10^−12 M, simultaneously with and next to 10^5 C6 cells, nude mice): 11 days
- ability to induce apoptosis (in words) (C6 cells [4]; diffusion chamber): as effective as the L-amino acid sequences
- Percent Recovery (C6 cells [4]; peptide 10^−5 M): 0.5%
- Percent Recovery (C6 cells [4]; peptide 10^−8 M): 3.0%
- Percent Recovery (C6 cells [4]; peptide 10^−12 M): 6.6%
- Percent Recovery (C6 cells [4]; peptide 10^−13 M, listed as LRLTATGDLL (D-aa)): 18.0%
- % Recovery (24 hs) (C6 cells [4]): 4.9%
- Percent Recovery [5]: 6.6%

Sequence: TLGIVCPI [HPV-16 E786-93, MHC Class I peptide derived from Human Papilloma Virus Type 16 (HPV-16) E7 protein]
- Recovery (%) (C6 cells [4]): 27%

Sequence: YLEPGAVTA
- Protection from wild type cell challenge (C6 cells [2]): no
- % Recovery (24 hs) (C6 cells [4]): 260.0%
- Percent Recovery [5]: 280%

Sequence: YLEPGPVTA [MHC Class I peptide recognized by melanoma-specific human CTL lines]
- apoptotic cells by FACS analysis (C6 cells [1]): Apoptotic cells are detectable
- Protection from wild type cell challenge (C6 cells [2]): yes
- % Recovery (24 hs) (C6 cells [4]): 3.0%
- Percent Recovery [5]: 0.2%

Sequence: YLEPGPVKA [point mutant of …]
- Protection from wild type cell challenge (C6 cells [2]): yes
- % Recovery (24 hs) (C6 cells [4]): 12.0%

Sequence: LLDGTATLRL [MHC Class I peptide derived from gp100, human melanoma specific antigen]
- Protection from wild type cell challenge (C6 cells [2]): yes
- % Recovery (24 hs) (C6 cells [4]): 5.0%

Sequence: YLEPGPVAA [point mutant of …]
- Protection from wild type cell challenge (C6 cells [2]): yes
- % Recovery (24 hs) (C6 cells [4]): 9.3%

Sequence: GILGFVPTL [Peptide M158-66, synthetic peptide corresponding to one derived from influenza virus]
- Recovery (%) (C6 glioblastoma cells): 23.4%

Sequence: YLEAGPVTA [point mutant of …]
- Protection from wild type cell challenge (C6 cells [2]): no
- % Recovery (24 hs) (C6 cells [4]): 224.0%

Sequence: YLRPGPVRA [double mutant (E3 and T8) of …]
- Protection from wild type cell challenge (C6 cells [2]): no
- % Recovery (24 hs) (C6 cells [4]): 77.0%

Sequence: YLEPGPATA [point mutant of …]
- Protection from wild type cell challenge (C6 cells [2]): yes
- % Recovery (24 hs) (C6 cells [4]): 11.0%

Sequence: ATVPGPELY (D-amino acids) [ATVPGPELY (D-amino acid)]
- Protection from wild type cell challenge (C6 cells [2]): yes
- ability to induce apoptosis (in words) (C6 cells [4]; diffusion chamber): as effective as the L-amino acid sequences
- % Recovery (24 hs) (C6 cells [4]): 6.0%

Sequence: YAEPGPVTA [point mutant of …]
- Protection from wild type cell challenge (C6 cells [2]): no
- % Recovery (24 hs) (C6 cells [4]): 186.0%

Sequence: YLEPAPVTA [point mutant of …]
- Protection from wild type cell challenge (C6 cells [2]): no
- % Recovery (24 hs) (C6 cells [4]): 70.0%

Sequence: ALEPGPVTA [point mutant of …]
- Protection from wild type cell challenge (C6 cells [2]): no
- % Recovery (24 hs) (C6 cells [4]): 224.0%

Sequence: YLEXGXVTA (X: N-Methyl-A) (YLE[NMeA]G[NMeA]VTA) [… with prolines replaced by an N-methyl amino acid]
- Protection from wild type cell challenge (C6 cells [2]): yes
- % Recovery (24 hs) (C6 cells [4]): 6.5%

Sequence: YLAPGPVTA [point mutant of …]
- Protection from wild type cell challenge (C6 cells [2]): yes
- % Recovery (24 hs) (C6 cells [4]): 7.4%

Sequence: YMLDLQPETT [HPV-16 E711-20, MHC Class I peptide derived from Human Papilloma Virus Type 16 (HPV-16) E7 protein]
- Recovery (%) (C6 cells [4]): 13%
